Laboratory results taken from article PMC6934184, “Selective DNA-PKcs inhibition extends the therapeutic index of localized radiotherapy and chemotherapy” (The Journal of Clinical Investigation, 2019).

Molecular target: T1, MAP4K2 (GCK) (Homo sapiens, UniProt Q12851)
T1 construct: purchased Thermo Fisher Scientific (Life Technologies) SelectScreen
Assay: SelectScreen Z'LYTE
Format: biochemical
Method in brief: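 Percent values come from Thermo SelectScreen profiling of NU5455, combining activity and binding assays. CSF1R was run in Z'LYTE format at Km app ATP, and CAMK1 in Adapta format with ATP listed at 10.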

T1 sequence (Q12851 whole entry): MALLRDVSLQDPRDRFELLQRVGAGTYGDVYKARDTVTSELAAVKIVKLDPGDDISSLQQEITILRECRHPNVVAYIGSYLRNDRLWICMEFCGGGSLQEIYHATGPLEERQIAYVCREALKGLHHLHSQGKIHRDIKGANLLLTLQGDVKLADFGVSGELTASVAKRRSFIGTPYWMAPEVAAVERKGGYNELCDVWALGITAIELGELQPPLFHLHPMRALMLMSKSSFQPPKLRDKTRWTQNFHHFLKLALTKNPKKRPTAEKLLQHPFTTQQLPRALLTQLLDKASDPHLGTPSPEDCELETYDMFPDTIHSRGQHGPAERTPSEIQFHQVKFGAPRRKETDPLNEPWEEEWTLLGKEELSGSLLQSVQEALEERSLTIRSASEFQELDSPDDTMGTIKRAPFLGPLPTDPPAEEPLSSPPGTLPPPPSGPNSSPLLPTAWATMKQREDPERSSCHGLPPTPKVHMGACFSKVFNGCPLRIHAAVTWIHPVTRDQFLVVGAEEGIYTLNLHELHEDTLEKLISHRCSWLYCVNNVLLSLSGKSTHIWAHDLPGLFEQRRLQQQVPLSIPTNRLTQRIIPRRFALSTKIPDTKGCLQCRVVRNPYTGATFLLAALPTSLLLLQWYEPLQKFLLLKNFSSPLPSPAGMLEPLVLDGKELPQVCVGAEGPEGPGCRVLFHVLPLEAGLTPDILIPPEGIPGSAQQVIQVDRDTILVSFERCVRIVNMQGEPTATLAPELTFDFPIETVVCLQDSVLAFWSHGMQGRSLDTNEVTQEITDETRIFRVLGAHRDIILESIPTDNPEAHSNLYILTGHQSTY

CN(C(=O)CN1CCOCC1)c1ccc2sc3c(-c4cccc5c(=O)cc(N6CC7CCC(C6)O7)oc45)cccc3c2c1 [NU5455]
inhibition at 1 µM: 2.7%
